# Data as given in patent publication US9636299B2, “Method for treating diabetic retinopathy” (XAVIER UNIVERSITY OF LOUISIANA, priority 2012, dated 2017).
# Residues, ends and D or L forms follow the SMILES beside them.
# Assays:
# Type in all cases: in vivo, mouse
# [1] = system: MMP9; test: Laser photocoagulation-induced retinal injury in mice, MMP9 real-time RT-PCR; settings: apoEdp 40 mg/kg intraperitoneally once each day for 7 days, vs mice without apoEdp
# Experimental: Laser Photocoagulation-Induced Retinopathy. Female mice (C57BL/6J), aged 6-8 weeks, were used for retinal laser photocoagulation studies. The mice were treated and maintained in accordance with the ARVO Statement for the Use of Animals in Ophthalmic and Vision Research. The mice were anesthetized by intraperitoneal injection of a mixture of ketamine (100 mg/kg; Warner Lambert Co., Morris Plains, N.J.) and xylazine (10 mg/kg; Bayer AG, Leverkusen, Germany), and the pupils dilated with 2.5% tropicamide (Alcon, Fort Worth, Tex.). […]
# RNA Extraction, Reverse Transcription, & PCR. […] Gene expression was measured at RNA level per 100 ng of total RNA using one-step RT-PCR kit (Bio-Rad, Hercules, Calif.). Four host genes (mouse GAPDH, mouse MMP2, mouse HPSE-1 (heparanase-1), and mouse MMP9) were analyzed to confirm relative quantitative expression levels. The primer pairs used were specifically designed and synthesized by Qiagen GmbH, Hilden, Germany (Quantitech Primer assay kit, for each host gene, catalog numbers QT01658692, QT00088396, QT00009555, and QT00040040, respectively). One-step Real-time quantitative RT-PCR reactions were performed in a 50-μL volume containing a solution of 1× supermix (iQ SYBR Green; Bio-Rad, Hercules, Calif.), 1 μM mix of forward and reverse primers, and 5 μL total RNA. […] Relative quantitative expression levels were determined for each gene. […]
# [2] = system: zona occludin 1 (ZO-1); test: Streptozotocin-induced diabetic mice, retinal ZO-1 immunohistochemistry; settings: 14 consecutive days, vs untreated diabetic
# Experimental: (§1) Streptozotocin (STZ) induced diabetes. Twelve week old C57Bl/6 mice were used for this study. Mice were induced to have diabetes by intraperitoneal injection of 170 μg/g of streptozotocin (Sigma Aldrich, St. Louis, Mo.). Controls were injected with a vehicle (0.01M sodium citrate buffer). On the third day after STZ treatment, mice tail veins were bled to test the hyperglycemic status using blood sugar detection kit (Lifescan; Johnson & Johnson, Milpitas, Calif.). Mice with blood sugar levels of >300 mg/dL on the third day after STZ treatment were considered diabetic. Eye drop treatment containing 1% apoEdp or vehicle PBS was continued 4 times a day for 14 consecutive days. Intra-peritoneal (i/p) injection containing 40 mg/kg of apoEdp or vehicle control PBS was administered once daily for 14 consecutive days. On the 15th day post-treatment, mice were euthanized, their eyes enucleated, and the retinas dissected out to use for mRNA or Western blot analysis.
# Immunohistochemistry. […]
# To investigate the effect of apoEdp on attenuation of ZO-1 loss, immunohistochemical detection of ZO-1 was performed in formalin-fixed de-paraffinized sections of mouse retinas of different experimental groups. […] The number of positive cells was determined in the high-power field (×400) for the retinas.
# [3] = system: heparanase; test: Streptozotocin-induced diabetic mice, heparanase expression; settings: either 14-day eye drop application or systemic i/p injection
# Experimental: as §1
# (§2) Increased vascular permeability in diabetic retinopathy (DR) is reported to result in a concomitant increase of VEGF. The VEGF pathway is known to play a role in breakdown of the BRB through a mechanism involving the down regulation of tight junction proteins in the retinal microvasculature (20).
# [4] = system: HS; test: Streptozotocin-induced diabetic mice, loss of HS; settings: either 14-day eye drop application or systemic i/p injection
# Experimental: as §1, §2
compound,measurement,setting,value
"CC(=O)N[C@@H](CC(C)C)C(=O)N[C@@H](CCCNC(=N)N)C(=O)N[C@@H](CCCCN)C(=O)N[C@@H](CC(C)C)C(=O)N[C@@H](CCCNC(=N)N)C(=O)N[C@@H](CCCCN)C(=O)N[C@@H](CCCNC(=N)N)C(=O)N[C@@H](CC(C)C)C(=O)N[C@@H](CC(C)C)C(=O)N[C@@H](CC(C)C)C(=O)N[C@@H](CCCNC(=N)N)C(=O)N[C@@H](CCCCN)C(=O)N[C@@H](CC(C)C)C(=O)N[C@@H](CCCNC(=N)N)C(=O)N[C@@H](CCCCN)C(=O)N[C@@H](CCCNC(=N)N)C(=O)N[C@@H](CC(C)C)C(=O)N[C@@H](CC(C)C)C(N)=O [apoEdp, Ac-LRKLRKRLLLRKLRKRLL-amide] (Ac-LRKLRKRLLLRKLRKRLL-NH2)",Expression of MMP9 in retina,[1],dramatically reduced
same,Number of ZO-1 positive cells in retina (high-power field ×400),[2]; i/p injections 40 mg/kg,significantly increased the number of positive cells
same,Number of ZO-1 positive cells in retina (high-power field ×400),[2]; topical 1% apoEdp drops,significantly increased the number of positive cells
same,Increased expression of heparanase,[3],reversed increased expression of heparanase
same,Loss of HS,[4],reversed
